Test results published in patent US20240270762A1, “PENICILLIN-BINDING PROTEIN INHIBITORS” (priority 2021, published 2024).
Converted amounts (≈) assume the structure as drawn. Like-named read-outs stand apart in the source and are kept apart here.

Assays:
N. gonorrhoeae WHO X = assay: Liquid broth MIC in Fastidious broth; conditions: Neisseria gonorrhoeae
P. aeruginosa CDC-0095 = assay: microbe, parasite or virus in culture; type: cell-based; conditions: Pseudomonas aeruginosa, CDC0095, read-out: Minimum inhibitory concentration, P. aeruginosa CDC-0095
N. gonorrhoeae WHO K = assay: Liquid broth MIC in Fastidious broth; conditions: Neisseria gonorrhoeae
N. gonorrhoeae WHO Z = assay: Liquid broth MIC in Fastidious broth; conditions: Neisseria gonorrhoeae
A. baumannii 1258916 = assay: microbe, parasite or virus in culture; type: cell-based, Acinetobacter baumannii; conditions: Acinetobacter baumannii, 1258916, read-out: MIC, A. baumannii 1258916
N. gonorrhoeae WHO Q = assay: Liquid broth MIC in Fastidious broth; conditions: Neisseria gonorrhoeae
N. gonorrhoeae FA1090 = assay: Liquid broth MIC in Fastidious broth; conditions: Neisseria gonorrhoeae
[1] = molecular target: T1, PBP3 from Acinetobacter baumannii (ATCC 19606) (Acinetobacter baumannii, UniProt A0ABX6CK25); assay: Bocillin-FL fluorescence polarization competition binding, A. baumannii PBP3; conditions: fluorescence polarization competition binding assay using Bocillin-FL; read-out: A. baumannii PBP3 Potency
T1 sequence (A0ABX6CK25 64-610): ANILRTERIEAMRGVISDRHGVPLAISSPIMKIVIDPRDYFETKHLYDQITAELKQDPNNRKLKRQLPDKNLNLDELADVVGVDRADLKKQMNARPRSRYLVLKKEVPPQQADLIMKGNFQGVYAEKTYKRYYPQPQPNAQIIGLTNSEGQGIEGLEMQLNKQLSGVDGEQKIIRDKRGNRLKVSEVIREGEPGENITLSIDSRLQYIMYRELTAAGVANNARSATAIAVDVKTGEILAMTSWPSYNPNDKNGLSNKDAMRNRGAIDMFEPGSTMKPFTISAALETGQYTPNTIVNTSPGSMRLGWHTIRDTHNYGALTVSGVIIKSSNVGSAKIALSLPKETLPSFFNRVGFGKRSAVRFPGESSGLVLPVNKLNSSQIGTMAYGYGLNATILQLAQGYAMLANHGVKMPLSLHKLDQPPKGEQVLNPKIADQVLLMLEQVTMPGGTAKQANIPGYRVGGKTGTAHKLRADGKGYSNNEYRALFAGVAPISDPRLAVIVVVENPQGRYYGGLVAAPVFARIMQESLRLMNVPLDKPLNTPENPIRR
In short: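 Purified PBPs pre-incubated with inhibitor (E. coli PBP3 1.5 μM, 30 min; P. aeruginosa PBP3 0.75 μM, A. baumannii PBP1a 1 μM and PBP3 0.2 μM, 15 min), then Bocillin-FL 0.1 μM (0.05 μM for PBP1a) added; FP read up to 60 min. EC50 = concentration halving bound Bocillin-FL.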

N. gonorrhoeae WHO M = assay: Liquid broth MIC in Fastidious broth; conditions: Neisseria gonorrhoeae
N. gonorrhoeae WHO G = assay: Liquid broth MIC in Fastidious broth; conditions: Neisseria gonorrhoeae
A. baumannii CDC-0036 = assay: microbe, parasite or virus in culture; type: cell-based; conditions: Acinetobacter baumannii, CDC0036, read-out: MIC, A. baumannii CDC-0036
[2] = read-out: Minimum Inhibitory Concentration (MIC), N. gonorrhoeae WHO X
[3] = read-out: Minimum Inhibitory Concentration (MIC), N. gonorrhoeae WHO K
[4] = read-out: Minimum Inhibitory Concentration (MIC), N. gonorrhoeae WHO Z
[5] = read-out: Minimum Inhibitory Concentration (MIC), N. gonorrhoeae WHO Q
[6] = FA1090, read-out: Minimum Inhibitory Concentration (MIC), N. gonorrhoeae FA 1090
[7] = read-out: Minimum Inhibitory Concentration (MIC), N. gonorrhoeae WHO M
[8] = read-out: Minimum Inhibitory Concentration (MIC), N. gonorrhoeae WHO G
[9] = read-out: Minimum Inhibitory Concentration, WHO X
[10] = read-out: Minimum Inhibitory Concentration, WHO K
[11] = read-out: Minimum Inhibitory Concentration, WHO Z
[12] = read-out: Minimum Inhibitory Concentration, WHO Q
[13] = FA1090, read-out: Minimum Inhibitory Concentration, FA 1090
[14] = read-out: Minimum Inhibitory Concentration, WHO M
[15] = read-out: Minimum Inhibitory Concentration, WHO G

SMILES	MIC (N. gonorrhoeae WHO X; [2])	MIC (P. aeruginosa CDC-0095)	MIC (N. gonorrhoeae WHO K; [3])	MIC (N. gonorrhoeae WHO Z; [4])	MIC (A. baumannii 1258916)	MIC (N. gonorrhoeae WHO Q; [5])	MIC (N. gonorrhoeae FA1090; [6])	IC50 [1]	MIC (N. gonorrhoeae WHO M; [7])	MIC (N. gonorrhoeae WHO G; [8])	MIC (A. baumannii CDC-0036)	MIC (N. gonorrhoeae WHO X; [9])	MIC (N. gonorrhoeae WHO K; [10])	MIC (N. gonorrhoeae WHO Z; [11])	MIC (N. gonorrhoeae WHO Q; [12])	MIC (N. gonorrhoeae FA1090; [13])	MIC (N. gonorrhoeae WHO M; [14])	MIC (N. gonorrhoeae WHO G; [15])
O=C(CN1CCN(C(=O)NC(C(=O)N[C@H]2Cc3ccc(F)c(C(=O)O)c3OB2O)c2cc(F)c(O)c(O)c2Cl)C(=O)C1=O)Nc1cccnc1 (stereo partly drawn) [Example 234, (3R)-3-(2-(2-chloro-5-fluoro-3,4-dihydroxyphenyl)-2-(2,3-dioxo-4-(2-oxo-2-(pyridin-3-ylamino)ethyl)piperazine-1-carboxamido)acetamido)-7-fluoro-2-hydroxy-3,4-dihydro-2H-benzo[e][1,2]oxaborinine-8-carboxylic acid]	> 64 µg/mL	32 to 64 µg/mL (≈ 44.6 to 89.3 µM)	16 to 32 µg/mL (≈ 22.3 to 44.6 µM)	16 to 32 µg/mL (≈ 22.3 to 44.6 µM)	< 1 µg/mL	16 to 32 µg/mL (≈ 22.3 to 44.6 µM)	1 to 2 µg/mL (≈ 1.4 to 2.79 µM)	< 10 µM	4 to 8 µg/mL (≈ 5.58 to 11.2 µM)	4 to 8 µg/mL (≈ 5.58 to 11.2 µM)	2 to 4 µg/mL (≈ 2.79 to 5.58 µM)							
O=C(NCCCS(=O)(=O)N1CCN(C(=O)N[C@@H](C(=O)N[C@H]2Cc3ccc(F)c(C(=O)O)c3OB2O)c2cc(F)c(O)c(O)c2Cl)C1=O)c1cccc(O)c1 [Example 271, (R)-3-((R)-2-(2-chloro-5-fluoro-3,4-dihydroxyphenyl)-2-(3-((3-(3-hydroxybenzamido)propyl)sulfonyl)-2-oxoimidazolidine-1-carboxamido)acetamido)-7-fluoro-2-hydroxy-3,4-dihydro-2H-benzo[e][1,2]oxaborinine-8-carboxylic acid]		> 128 µg/mL			< 1 µg/mL			< 10 µM			2 to 4 µg/mL (≈ 2.51 to 5.03 µM)	> 64 µg/mL	> 64 µg/mL	4 to 8 µg/mL (≈ 5.03 to 10.1 µM)	16 to 32 µg/mL (≈ 20.1 to 40.2 µM)	1 to 2 µg/mL (≈ 1.26 to 2.51 µM)	4 to 8 µg/mL (≈ 5.03 to 10.1 µM)	16 to 32 µg/mL (≈ 20.1 to 40.2 µM)
CN(CCN1CCN(C(=O)N[C@@H](C(=O)N[C@H]2Cc3ccc(F)c(C(=O)O)c3OB2O)c2cc(F)c(O)c(O)c2Cl)C(=O)C1=O)Cc1cccc(C(N)=O)c1 [Example 225, (R)-3-((R)-2-(4-(2-((3-carbamoylbenzyl)(methyl)amino)ethyl)-2,3-dioxopiperazine-1-carboxamido)-2-(2-chloro-5-fluoro-3,4-dihydroxyphenyl)acetamido)-7-fluoro-2-hydroxy-3,4-dihydro-2H-benzo[e][1,2]oxaborinine-8-carboxylic acid]	> 64 µg/mL	2 to 4 µg/mL (≈ 2.59 to 5.18 µM)	> 64 µg/mL	16 to 32 µg/mL (≈ 20.7 to 41.4 µM)	< 1 µg/mL	> 64 µg/mL	1 to 2 µg/mL (≈ 1.29 to 2.59 µM)	< 10 µM	16 to 32 µg/mL (≈ 20.7 to 41.4 µM)	16 to 32 µg/mL (≈ 20.7 to 41.4 µM)	2 to 4 µg/mL (≈ 2.59 to 5.18 µM)							
O=C(NCCS(=O)(=O)N1CCN(C(=O)NC(C(=O)N[C@H]2Cc3ccc(F)c(C(=O)O)c3OB2O)c2cc(F)c(O)c(O)c2Cl)C1=O)c1ccccc1 (stereo partly drawn) [Example 260, (3R)-3-(2-(3-((2-benzamidoethyl)sulfonyl)-2-oxoimidazolidine-1-carboxamido)-2-(2-chloro-5-fluoro-3,4-dihydroxyphenyl)acetamido)-7-fluoro-2-hydroxy-3,4-dihydro-2H-benzo[e][1,2]oxaborinine-8-carboxylic acid]		2 to 4 µg/mL (≈ 2.61 to 5.22 µM)			< 1 µg/mL			< 10 µM			2 to 4 µg/mL (≈ 2.61 to 5.22 µM)	> 64 µg/mL	> 64 µg/mL	16 to 32 µg/mL (≈ 20.9 to 41.8 µM)	16 to 32 µg/mL (≈ 20.9 to 41.8 µM)	4 to 8 µg/mL (≈ 5.22 to 10.4 µM)	16 to 32 µg/mL (≈ 20.9 to 41.8 µM)	16 to 32 µg/mL (≈ 20.9 to 41.8 µM)
O=C(NCCCN1CCN(C(=O)N[C@@H](C(=O)N[C@H]2Cc3ccc(F)c(C(=O)O)c3OB2O)c2cc(F)c(O)c(O)c2Cl)C(=O)C1=O)c1cccnc1 [Example 210, (R)-3-((R)-2-(2-chloro-5-fluoro-3,4-dihydroxyphenyl)-2-(4-(3-(nicotinamido)propyl)-2,3-dioxopiperazine-1-carboxamido)acetamido)-7-fluoro-2-hydroxy-3,4-dihydro-2H-benzo[e][1,2]oxaborinine-8-carboxylic acid]	> 64 µg/mL	< 1 µg/mL	> 64 µg/mL	16 to 32 µg/mL (≈ 21.5 to 43 µM)	< 1 µg/mL	> 64 µg/mL	< 1 µg/mL	< 10 µM	16 to 32 µg/mL (≈ 21.5 to 43 µM)	4 to 8 µg/mL (≈ 5.37 to 10.7 µM)	2 to 4 µg/mL (≈ 2.69 to 5.37 µM)							
O=C(NCCN1CCN(C(=O)NC(C(=O)N[C@H]2Cc3ccc(F)c(C(=O)O)c3OB2O)c2cc(F)c(O)c(O)c2Cl)C(=O)C1=O)Nc1cccc(O)c1 (stereo partly drawn) [Example 220, (3R)-3-(2-(2-chloro-5-fluoro-3,4-dihydroxyphenyl)-2-(4-(2-(3-(3-hydroxyphenyl)ureido)ethyl)-2,3-dioxopiperazine-1-carboxamido)acetamido)-7-fluoro-2-hydroxy-3,4-dihydro-2H-benzo[e][1,2]oxaborinine-8-carboxylic acid]	> 64 µg/mL	8 to 16 µg/mL (≈ 10.5 to 21 µM)	> 64 µg/mL	> 64 µg/mL	2 to 4 µg/mL (≈ 2.63 to 5.26 µM)	> 64 µg/mL	1 to 2 µg/mL (≈ 1.31 to 2.63 µM)	< 10 µM	4 to 8 µg/mL (≈ 5.26 to 10.5 µM)	4 to 8 µg/mL (≈ 5.26 to 10.5 µM)	8 to 16 µg/mL (≈ 10.5 to 21 µM)							
O=C(NCCN1CCN(C(=O)NC(C(=O)N[C@H]2Cc3ccc(F)c(C(=O)O)c3OB2O)c2cc(F)c(O)c(O)c2Cl)C1=O)Nc1cccc(O)c1 (stereo partly drawn) [Example 249, (3R)-3-(2-(2-chloro-5-fluoro-3,4-dihydroxyphenyl)-2-(3-(2-(3-(3-hydroxyphenyl)ureido)ethyl)-2-oxoimidazolidine-1-carboxamido)acetamido)-7-fluoro-2-hydroxy-3,4-dihydro-2H-benzo[e][1,2]oxaborinine-8-carboxylic acid]		32 to 64 µg/mL (≈ 43.7 to 87.3 µM)			< 1 µg/mL			< 10 µM			2 to 4 µg/mL (≈ 2.73 to 5.46 µM)	> 64 µg/mL	> 64 µg/mL	16 to 32 µg/mL (≈ 21.8 to 43.7 µM)	> 64 µg/mL	1 to 2 µg/mL (≈ 1.36 to 2.73 µM)	16 to 32 µg/mL (≈ 21.8 to 43.7 µM)	16 to 32 µg/mL (≈ 21.8 to 43.7 µM)
O=C(CN1CCN(C(=O)NC(C(=O)N[C@H]2Cc3ccc(F)c(C(=O)O)c3OB2O)c2cc(F)c(O)c(O)c2Cl)C(=O)C1=O)NCc1cccnc1 (stereo partly drawn) [Example 240, (3R)-3-(2-(2-chloro-5-fluoro-3,4-dihydroxyphenyl)-2-(2,3-dioxo-4-(2-oxo-2-((pyridin-3-ylmethyl)amino)ethyl)piperazine-1-carboxamido)acetamido)-7-fluoro-2-hydroxy-3,4-dihydro-2H-benzo[e][1,2]oxaborinine-8-carboxylic acid]	> 64 µg/mL	2 to 4 µg/mL (≈ 2.74 to 5.47 µM)	> 64 µg/mL	16 to 32 µg/mL (≈ 21.9 to 43.8 µM)	< 1 µg/mL	16 to 32 µg/mL (≈ 21.9 to 43.8 µM)	1 to 2 µg/mL (≈ 1.37 to 2.74 µM)	< 10 µM	4 to 8 µg/mL (≈ 5.47 to 10.9 µM)	4 to 8 µg/mL (≈ 5.47 to 10.9 µM)	2 to 4 µg/mL (≈ 2.74 to 5.47 µM)							
O=C(NCCCS(=O)(=O)N1CCN(C(=O)NC(C(=O)N[C@H]2Cc3ccc(F)c(C(=O)O)c3OB2O)c2cc(F)c(O)c(O)c2Cl)C1=O)c1cccnc1 (stereo partly drawn) [Example 273, (3R)-3-(2-(2-chloro-5-fluoro-3,4-dihydroxyphenyl)-2-(3-((3-(nicotinamido)propyl)sulfonyl)-2-oxoimidazolidine-1-carboxamido)acetamido)-7-fluoro-2-hydroxy-3,4-dihydro-2H-benzo[e][1,2]oxaborinine-8-carboxylic acid]		32 to 64 µg/mL (≈ 41 to 82 µM)			< 1 µg/mL			< 10 µM			2 to 4 µg/mL (≈ 2.56 to 5.12 µM)	> 64 µg/mL	> 64 µg/mL	4 to 8 µg/mL (≈ 5.12 to 10.2 µM)	16 to 32 µg/mL (≈ 20.5 to 41 µM)	4 to 8 µg/mL (≈ 5.12 to 10.2 µM)	16 to 32 µg/mL (≈ 20.5 to 41 µM)	16 to 32 µg/mL (≈ 20.5 to 41 µM)
